In article PMC7357032, “Antiparasitic Constituents of Beilschmiedia louisii and Beilschmiedia obscura and Some Semisynthetic Derivatives (Lauraceae)” (Molecules, 2020):
Where two headings read alike, the source gives them in different places.

How the values were obtained:
[1] = tested on: Plasmodium falciparum strain Pf3D7; assay: In vitro antiplasmodial assay (pLDH assay); conditions: read-out: IC50 Pf3D7
[2] = Cytotoxicity assay (resazurin); type: cell-based; conditions: human, compounds and combinations, HeLa cells, read-out: % Cell Viability ± sd Cytotoxicity
Protocol: Human cervix adenocarcinoma cells (HeLa cells) were used to check the toxicity of the crude extract and compounds and their combinations as described by Keusch et al. (1972). Stocks solutions were prepared in DMSO at a concentration of 50 μg/mL for the extracts and 20 μM for compounds, and combinations. To assess the overt cytotoxicity, samples were placed in 96-well plates containing cells for 48 h. The numbers of cells surviving drug treatment were determined using the resazurin based reagent and reading resorufin fluorescence in a Spectramax M3 microplate reader. Results were expressed as % viability-the resorufin fluorescence in compound-treated wells relative to untreated controls. Compounds were tested in duplicate and standard deviations (SD) derived. […] (which induces cell apoptosis) was used as the positive control.

[3] = tested on: Trypanosoma brucei brucei; assay: In vitro antitrypanosomal assay (resazurin viability); conditions: for antitrypanosomal activity against Tb brucei (in words): in vitro; for IC50: Trypanosoma brucei
[4] = read-out: IC50 Tb brucei, compounds, values given in µg/mL in the text

Row | SMILES | viability at 48 h, 20 µM (stock) [2] | also measured
1 | CCN(CC)CCCC(C)Nc1ccnc2cc(Cl)ccc12 (stereo not drawn) [Chloroquine] |  | IC50 [1]: 0.034 µM
2 | CCCC/C=C\CCCCc1ccccc1 [Compound 3, (5Z) 1-phenyldec-5-ene] | 50.3 ± 8.9% | 
3 | O=C(O)CCCCCCCCCCCCCCc1ccccc1 [Compound 5, 15-phenylpentadecanoic acid] | 76.6 ± 4.1% | 
4 | CCCCCCCCC1C2C=CC3C(C(=O)O)C=CC4CC1C2C43 (stereo not drawn) [Compound 11, beilschmiedic acid E] | 100 ± 5.8% | antitrypanosomal activity against Tb brucei (in words) [3]: inactive
5 | CCCCCCCCC1C2C=CC3C(CO)C=CC4CC1C2C43 (stereo not drawn) [Compound 11a, beilschmiedol A] | 52.6 ± 1.8% | antitrypanosomal activity against Tb brucei (in words) [3]: moderate activity
6 | CCCCCCCC[C@@H]1[C@H]2C=C[C@H]3C(C=O)=CC[C@@H]4C[C@@H]1[C@@H]2[C@H]43 [Compound 11b, beilschmiedal] | 79.6 ± 17.1% | IC50 [1]: 31.4 µM; IC50 [3, 4]: 8.3 µg/mL
7 | CCCCCCCC[C@@H]1[C@H]2C=C[C@H]3C(/C=N/NC(N)=S)=CC[C@@H]4C[C@@H]1[C@@H]2[C@H]43 [Compound 11c, beilschmiecarbazone] | 100 ± 2.8% | 
8 | CCCCCCCCC1C2C=CC3C(COC(=O)c4cc(OC)c(OC)c(OC)c4)C=CC4CC1C2C43 (stereo not drawn) [Compound 11d, beilschmiegallate] | 100 ± 3.4% | 
9 | O=C(O)C[C@@H]1[C@H]2C=C[C@H]3C(c4ccc5c(c4)OCO5)=CC[C@@H]4C[C@@H]1[C@@H]2[C@H]43 [Compound 12, methylenedioxyendiandric acid A] | 100 ± 10.8% | 
10 | CC[C@H](CC[C@@H](C)[C@H]1CC[C@H]2[C@@H]3CC=C4C[C@@H](O)CC[C@]4(C)[C@H]3CC[C@]12C)C(C)C [Compound 13, β-sitosterol] |  | IC50 ([3]; 48 h, read-out: IC50 Tb Brucei, isolated compounds, mixtures and drug standard, dose-response, for 6 + 7 IC50 maximum calculated with the constituent of lowest molecular mass): 9.5 µM
11 | N=C(N)c1ccc(OCCCCCOc2ccc(C(=N)N)cc2)cc1 [Pentamidine, reference compound] |  | IC50 [3, 4]: ~0.01 µg/mL
